SMILES strings stand for the structures.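 Cultured in 96-well plates, cells were exposed to test compound for 48 hours across five concentrations. GI50 marks 50% less growth. TGI: total growth inhibition.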 Where only a bound is given, the exact number is not on record here.

Assay in all cases: growth of human tumour cells (NCI), 48 h
Assay [1] deals with CAKI-1 renal.
Assay [2] has as its system CCRF-CEM leukemia.
The subject of assay [3] is COLO 205 colon.
For assay [4], the system named is HCT-15 colon.
For assay [5], the system named is HL-60(TB) leukemia.
Assay [6] has as its system NCI-H23 lung.
Assay [7] concerns NCI-H522 lung.
Assay [8] deals with RXF 393 renal.
In assay [9] the test system is SK-MEL-5 melanoma.

Regarding `Cc1ccc(NC(=O)C(=O)CC(=O)c2c(C)n([O-])c3ccccc3[n+]2=O)cc1C`, the TGI in assay [1], in [2], in assay [3], in [4], in assay [5] and in assay [6] was above 100 µM each time. For the same compound, the TGI in assay [7], in assay [8] and in [9] was above 100 µM in each case.

As to `CCCCCCCC1(c2ccc(N)cc2)CCC(=O)NC1=O` (stereo not drawn), the TGI is above 100 µM in assay [1]; 52.5 µM in assay [3]; above 100 µM in assay [4]; 36.6 µM in [5]; above 100 µM in assay [6]; 78.6 µM in [7]. The TGI in assay [8] is above 100 µM; in assay [9], 49.6 µM.

As for `CC1OC(=O)C(O)=C1O` (stereo not drawn), the TGI in assay [1], in [2], in assay [3], in assay [4], in assay [6] and in assay [7] was above 100 µM each time. In addition, the TGI in [8] and in assay [9] was above 100 µM in each case.

Consider `CCN(CC)CC1CCCCN1CC(=O)N1CC(C)C(=O)Nc2ccccc21` (stereo not drawn), for which the TGI in [1], in [2], in assay [3], in assay [4], in [5] and in assay [6] was above 100 µM throughout. In assay [9], the TGI is above 100 µM.

As to `CC1=C(C(=O)Nc2ccccc2)C(c2ccccc2Cl)C(C(=O)Nc2ccccc2)=C(C)N1`, the TGI is 57.2 µM in assay [1]; 62.1 µM in [2]; 34.3 µM in assay [3]; 38.5 µM in assay [4]; 31.8 µM in assay [5]; 71.7 µM in [6]. Further, the TGI in assay [7] was 35.4 µM; in assay [9] it was 29.8 µM.

Consider `O=C(O)CCNS(=O)(=O)c1ccc2ccccc2c1`, for which the TGI in assay [1], in assay [2], in assay [3], in [4], in assay [5] and in assay [6] was above 100 µM in each case. Also, the TGI in assay [7] and in assay [9] was above 100 µM each time.

Consider `C1CCCCc2nc3c(nc2CCC1)c1nc2c(nc1c1nc4c(nc31)CCCCCCCC4)CCCCCCCC2`, for which the TGI in assay [2], in assay [3], in assay [4], in assay [5] and in assay [6] was above 100 µM throughout.

Turning to `COCCOc1cc(C)cc(/C=C(C)/C=C/C2=C(C)CCCC2(C)C)n1`, the TGI is above 100 µM in assay [1]; above 100 µM in assay [3]; above 100 µM in [6]; above 100 µM in [7]; above 100 µM in assay [8]; 39.8 µM in [9].

`COc1ccc(C2=Nc3ccccc3SC(C)C2)cc1OC` (stereo not drawn): the TGI was 50.4 µM in assay [1]; 87.3 µM in [2]; 40.6 µM in [3]; 31.9 µM in assay [4]; 59.6 µM in assay [5]; 38.5 µM in [6]. Also, the TGI in assay [7] was determined as 32.1 µM; in assay [9], 37 µM.

With `N#CC(C(=O)CCCC(=O)Nc1ccc(Cl)cc1Cl)c1ccccc1` (stereo not drawn), the TGI in assay [1], in assay [2], in [3], in [4], in assay [5] and in [6] was above 100 µM each time. Also, the TGI in assay [8] and in assay [9] was above 100 µM throughout.

Take `O=C(C(=O)n1ncc(Cl)c(Cl)c1=O)n1ncc(Cl)c(Cl)c1=O`: the TGI in [1] was determined as 44 µM; in [2] it was 29.7 µM; in [3], 29 µM; in [4], 46.5 µM; in assay [5] it was 22.6 µM; in [6], 41.5 µM. The TGI in [7] was found to be 28.1 µM; in [9] it was 97.2 µM.

Take `CCCCCC(=O)Nc1nc2nc[nH]c2c(=O)[nH]1`: the TGI in [1], in assay [2], in assay [3], in assay [4], in assay [5] and in assay [6] was above 100 µM in each case. Further, the TGI in [7], in [8] and in [9] was above 100 µM each time.

Turning to `C#CC1=CC(=O)C(OC)=CC1=O`, the TGI in assay [1] is 42.6 µM; in assay [2], 30.8 µM; in [3] it was above 100 µM; in assay [4], 32.3 µM; in [5], 13.4 µM; in assay [6], 60 µM. The TGI turned out to be 4.2 µM in [7], 30.1 µM in assay [8] and 40 µM in assay [9].

Take `COC1CC(O)C(OC(=O)c2ccccc2)C(C)O1` (stereo not drawn): the TGI in [1], in [2], in assay [3], in [4], in assay [5] and in assay [6] was above 100 µM in each case. The TGI in assay [7] and in assay [9] was above 100 µM in each case.

Take `COc1ccc2oc3c(OC)c(OC)c(OC)cc3c(=O)c2c1`: the TGI in assay [1], in assay [2], in assay [3], in assay [4], in assay [6] and in assay [7] was above 100 µM in each case. Moreover, the results for the TGI in assay [8] and in assay [9] were 84.4 µM and above 100 µM, respectively.

For the compound `Cc1ccc(C)c(N2C(=O)C(=O)C(c3nc4ccccc4o3)C(=O)C2=O)c1`, the TGI in [1] is above 100 µM; in [2], above 100 µM; in [3], 95.4 µM; in [4], above 100 µM; in [5], 61.3 µM; in assay [6] it was above 100 µM. Also, the TGI in assay [8] and in assay [9] was above 100 µM each time.

With `CCC(C)CC(C)CC(C)/C=C(\C)C1=C(C)CC(C)(O)O1` (stereo not drawn), the TGI in assay [1] was above 100 µM; in assay [2], above 100 µM; in assay [3], above 100 µM; in [4] it was above 100 µM; in assay [5], 79 µM; in assay [6], above 100 µM. The TGI in [7], in assay [8] and in assay [9] was above 100 µM throughout.

Regarding `CCOC(=O)c1cc(-c2ccc(-c3cc(C(=O)OCC)c(C#N)c(N)c3C#N)cc2)c(C#N)c(N)c1C#N`, the TGI in assay [1], in [2], in assay [3], in assay [4], in [5] and in [6] was above 100 µM in each case. Besides, the TGI in assay [7] and in assay [8] was above 100 µM throughout.

On to `Cc1cccc(C(=O)O)c1C(=O)c1cccc2ccccc12`, for which the TGI in assay [1], in assay [2], in [3], in assay [4], in [6] and in assay [7] was above 100 µM in each case. For the same compound, the TGI in assay [8] and in assay [9] was above 100 µM throughout.

`CCC[CH2][Sn]([CH2]CCC)([S]C#N)[S]C#N`: the GI50 is 0.32 µM in assay [1]; 0.224 µM in [2]; 1.4 µM in assay [3]; 1.18 µM in assay [4]; 0.389 µM in assay [5]; 0.609 µM in [6]. The results for the GI50 in assay [7], in [8] and in assay [9] were 0.0451 µM, 0.342 µM and 0.483 µM, respectively. Moreover, the TGI turned out to be 1.87 µM in assay [1]; 0.869 µM in assay [2]; 3.77 µM in assay [3]; 2.53 µM in [4]; 1.45 µM in [5]; 2.14 µM in assay [6]. For the same compound, the TGI in [7] stood at 0.224 µM; in [8], 1.33 µM; in assay [9], 1.76 µM.

`N#Cc1ccccc1NC(=O)C(=O)C1NC(=S)NC1=O` (stereo not drawn): the TGI in assay [1], in assay [2], in assay [3], in [4], in [5] and in assay [6] was above 100 µM throughout. Besides, the TGI in [8] and in [9] was above 100 µM throughout.

On to `CCOC(=O)/C(=C/c1cccc(Cl)c1)N(CC)CC`, for which the TGI in assay [1], in assay [2], in [3], in assay [4], in assay [5] and in assay [6] was above 100 µM in each case. In addition, the TGI is 96.2 µM in assay [7] and above 100 µM in assay [9].

As for `CC1=C(SC#N)S(=O)(=O)N(c2ccccc2)C(C)=C1SC#N`, the TGI in [1] is above 100 µM; in assay [2], 45.8 µM; in [4], above 100 µM; in [5], above 100 µM; in assay [6] it was above 100 µM; in assay [7], above 100 µM. Further, the TGI in assay [8] and in assay [9] was above 100 µM throughout.

For `Cc1cc(N(CCOS(C)(=O)=O)CCOS(C)(=O)=O)ccc1C(=O)O`, the GI50 in assay [1] is 43.7 µM; in assay [2], 67.4 µM; in [3] it was above 100 µM; in assay [4], above 100 µM; in assay [6], 98.2 µM; in [7], 10.7 µM. Moreover, the GI50 in assay [9] is above 100 µM. Besides, the TGI in [1], in assay [2], in assay [3], in assay [4], in assay [6] and in assay [7] was above 100 µM in each case. The TGI in assay [9] is above 100 µM.

As for `Cc1ccc2nc(NC(=O)C(=O)C(C#N)c3ccc(Cl)cc3)sc2c1` (stereo not drawn), the TGI in [1], in assay [3], in assay [4], in assay [6] and in [8] was above 50 µM in each case.

With `COc1cc2c(c(OC)c1OC)-c1ccc(SC)c(=O)cc1[C@@H](NCc1ccc([N+](=O)[O-])cc1)CC2`, the TGI in [1] was above 100 µM; in assay [3] it was 0.0145 µM; in assay [4] it was 0.0324 µM; in assay [5], 1.49 µM; in assay [7], 0.0119 µM; in [8], 0.00781 µM. In [9], this compound registered a TGI of 17.5 µM.

For the compound `C/C(CN1C(=O)c2ccccc2C1=O)=N\NS(=O)(=O)c1cccc(C(=O)O)c1`, the TGI in assay [1], in assay [2], in assay [3], in [4], in [5] and in [6] was above 100 µM each time. Also, the TGI in [7] and in [9] was above 100 µM in each case.

As to `NC1c2ccccc2Nc2ccccc21`, the TGI in assay [1] turned out to be 17.4 µM; in assay [2] it was 25.7 µM; in [3] it was 6.52 µM; in [4], 14 µM; in [5], 16.3 µM; in [6], 17.5 µM. Besides, the figures for the TGI in assay [7], in assay [8] and in assay [9] were 5.2 µM, 15.9 µM and 17.1 µM, respectively.

Consider `CC(C)c1cc(C(C)C)c(S(=O)(=O)N=[N+]=[N-])c(C(C)C)c1`, for which the TGI in [1], in assay [2], in assay [3], in assay [4], in [5] and in assay [6] was above 100 µM in each case. Besides, the TGI in assay [7], in assay [8] and in [9] was above 100 µM each time.

For the compound `CC(C)c1cccc(C(C)C)c1N1C(=O)C(=O)C(c2nc3ccccc3o2)C(=O)C1=O`, the TGI in assay [1], in assay [2], in assay [3], in assay [4], in assay [5] and in assay [6] was above 100 µM each time. The TGI in [7] was 50.6 µM; in assay [8] it was above 100 µM; in assay [9] it was above 100 µM.

Values taken from PubChem BioAssay (NCI).
